In patent US20210395406A1, “REVERSIBLE CROSS-LINKING SYSTEM FOR POLYVINYLAMINES” (SOLENIS TECHNOLOGIES, L.P., priority 2020, published 2021):
In brackets after ≈: the same amount, converted by molar mass. Counter-ions that a name gives are not always drawn.

What was measured:
[1] = Water solubility of cross-linkers
[2] = Reversibility of cross-linking by means of pH-change; assay type: physicochemical; conditions: gel of 3.9 g Example 2.1 at pH 7 crosslinked with 0.075 g OBP, after adding 2 ml hydrochloric acid (10 w %)
Procedure: 3.9 g Example 2.1 at 7 pH stained with rhodamine B were crosslinked with 0.075 g OBP dissolved in 1 mL water at RT. The cross-linking reaction produces within a few seconds a solid gel. After adding 2 ml of hydrochloric acid (10 w %) it takes about 2 h till the gel is completely liquefied. When setting the pH back to neutral by adding caustic the gel is instantaneously formed again.

[3] = Oscillatory shear rheology of PVAm hydrogels cross-linked with OBP; assay type: physicochemical
Procedure: To investigate the mechanical properties of the hydrogel and to confirm the formation of cross-linking points from a mechanical point of view, dynamic rheological measurements were performed. Hydrogel samples with a varying degree of cross-linking (DC=n(OBP)/n(Am) [mol %]) in the range of 1-5 mol % and a water content of 94 wt % were analyzed under oscillatory shear. […] All samples show an elastic response over the entire frequency range, with G′ distinctly exceeding G″ by two magnitudes. Additionally, a frequency independent behavior for G′ is observed.
Rheological properties of the hydrogels were analyzed via oscillatory shear experiments on the strain-controlled rotational rheometer Ares G2 (TA Instruments, Eschborn, Germany). Hydrogel samples with a varying degree of cross-linking (DC) between 1 and 5 mol % (DC=n(OBP)/n(Am) [mol %]) were prepared in a cylindrical PTFE mold with a diameter of ˜30 mm to obtain uniform disc-shaped specimens. The cross-linking agent (OBP) was first dissolved in 1 ml H2O and then mixed with 3 ml of the 6.6 wt % PVAm solution. The mold was sealed and the cross-linking reaction was allowed to proceed overnight.
The test geometry was a 30 mm diameter plate made from aluminum. The geometry was lowered until a constant axial force of 0.5 N was applied to the sample and the temperature was controlled to 25±0.1° C. by a Peltier element (Advanced Peltier System, TA Instruments). First, an oscillatory strain sweep was performed with a constant frequency of f=1 Hz by varying the strain from γ0=0.01-1000% to determine the linear viscoelastic (LVE) regime. The values at a strain of γ0=0.1% were chosen to be representative for the LVE regime. Subsequently, frequency sweeps were employed at a fixed strain of 0.1% while the frequency was varied from 0.03 to 100 Hz. To study the self-healing properties, the sample with DC=3 mol % was cut and subsequently cured in a sealed mold at 70° C. for 3 h.

SMILES | solubility [1] [mg/mL] | time till the gel is completely liquefied [2] | mechanical strength ([3]; PVAm hydrogels cross-linked with OBP, at higher DC values, water content 94 wt %) | storage modulus ([3]; PVAm/OBP hydrogel DC=3 mol %, after first self-healing cycle) [kPa] | storage modulus ([3]; PVAm/OBP hydrogel DC=3 mol %, before first self-healing cycle) | decrease of G′ ([3]; PVAm/OBP hydrogel DC=3 mol %, cut and measured directly without curing) [%] | decrease of the storage modulus ([3]; PVAm/OBP hydrogel DC=3 mol %, first self-healing cycle, cut and cured at 70° C. for 3 h) [%] | melting point [°C]
O=C1CCN(C(=O)C(=O)N2CCC(=O)CC2)CC1 [Example 1.1, 1,2-bis(4-oxopiperidin-1-yl)ethane-1,2-dione] | 60 (≈ 238 mM) | about 2 h | up to 15 kPa | ~6 | approximately 7 kPa | 42 | 14 | –
O=C1CCN(C(=O)c2ccc(C(=O)N3CCC(=O)CC3)cc2)CC1 [Example 1.2, 1,1′-Terephthaloylbis(piperidin-4-one)] | 0.5 (≈ 1.52 mM) | – | – | – | – | – | – | –
O=C1CCN(C(=O)C(=O)N2CCC(=O)CC2)CC1 (as salt: hydrochloride) (hydrate or solvate) [Example 1.1, 1,2-bis(4-oxopiperidin-1-yl)ethane-1,2-dione] | – | – | – | – | – | – | – | 174
